Experimental data from patent publication US20140235705A1, “FORMULATIONS OF THIOPHENE COMPOUNDS” (Vertex Pharmaceuticals Incorporated, priority 2011, published 2014).
Counter-ions that a name gives are not always drawn.

Test: Solubility (Cs) of Compound (1) solid forms in FESSIF
Type: physicochemical
Details: FESSIF (fed state simulated intestinal fluid)
From the text: Simulated human intestinal media suitable for the invention can be found in the art, for example, those described in Jantratid, et al., “Dissolution Media Simulating Conditions in the Proximal Human Gastrointestinal Tract: An Update,” Pharmaceutical Research, 25(7), 2008. In one embodiment, a human fed state simulated intestinal fluid ([…]) is employed in the invention. A typical […] includes sodium hydroxide, citric acid, sodium chloride, sodium taurocholate, and lecithin (L-Alpha-Phosphatidyl Choline). A specific example is described in Example 9 below. […] [table]

Row | SMILES | solubility of Compound (1) in FESSIF
1 | CC(C)(C)C#Cc1cc(N(C(=O)[C@H]2CC[C@H](C)CC2)[C@H]2CC[C@H](O)CC2)c(C(=O)O)s1 [tromethamine salt of Compound (1), 5-(3,3-Dimethyl-but-1-ynyl)-3-[(trans-4-hydroxy-cyclohexyl)-(trans-4-methyl-cyclohexanecarbonyl)-amino]-thiophene-2-carboxylic acid] | 2600 µg/mL
2 | CC(C)(C)C#Cc1cc(N(C(=O)[C@H]2CC[C@H](C)CC2)[C@H]2CC[C@H](O)CC2)c(C(=O)O)s1 [Form A of Compound (1), 5-(3,3-Dimethyl-but-1-ynyl)-3-[(trans-4-hydroxy-cyclohexyl)-(trans-4-methyl-cyclohexanecarbonyl)-amino]-thiophene-2-carboxylic acid] | 900 µg/mL
3 | CC(C)(C)C#Cc1cc(N(C(=O)[C@H]2CC[C@H](C)CC2)[C@H]2CC[C@H](O)CC2)c(C(=O)O)s1 [Form M of Compound (1), 5-(3,3-Dimethyl-but-1-ynyl)-3-[(trans-4-hydroxy-cyclohexyl)-(trans-4-methyl-cyclohexanecarbonyl)-amino]-thiophene-2-carboxylic acid] | 825 µg/mL
